From ChEMBL document CHEMBL1147177, “Identification of tyrosinase inhibitors from Marrubium velutinum and Marrubium cylleneum” (Bioorg Med Chem, 2007)

Experiments:
[1] = target: T1, Tyrosinase (Agaricus bisporus) (UniProt O42713); assay: Inhibition of diphenolase activity of mushroom tyrosinase at 0.042 mM
T1 sequence (whole entry): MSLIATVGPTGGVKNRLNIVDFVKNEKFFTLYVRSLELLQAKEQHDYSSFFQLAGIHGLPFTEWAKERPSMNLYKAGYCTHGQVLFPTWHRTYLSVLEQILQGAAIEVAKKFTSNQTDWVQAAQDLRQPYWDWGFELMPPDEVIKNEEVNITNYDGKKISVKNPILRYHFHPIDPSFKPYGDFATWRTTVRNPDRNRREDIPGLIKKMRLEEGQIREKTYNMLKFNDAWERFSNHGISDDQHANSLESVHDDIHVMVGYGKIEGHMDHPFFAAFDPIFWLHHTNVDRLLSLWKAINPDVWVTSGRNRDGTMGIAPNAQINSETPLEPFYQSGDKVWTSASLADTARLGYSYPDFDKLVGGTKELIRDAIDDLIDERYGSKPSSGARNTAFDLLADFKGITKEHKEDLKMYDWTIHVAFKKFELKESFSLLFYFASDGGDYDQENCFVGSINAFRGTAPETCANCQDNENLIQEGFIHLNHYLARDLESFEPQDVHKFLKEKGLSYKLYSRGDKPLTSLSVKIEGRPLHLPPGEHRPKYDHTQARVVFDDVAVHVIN

[2] = target: T1, Tyrosinase (Agaricus bisporus); assay: Inhibition of diphenolase activity of mushroom tyrosinase at 0.053 mM
[3] = target: T1, Tyrosinase (Agaricus bisporus); assay: Inhibition of diphenolase activity of mushroom tyrosinase at 0.049 mM
[4] = target: T1, Tyrosinase (Agaricus bisporus); assay: Inhibition of diphenolase activity of mushroom tyrosinase at 0.036 mM
[5] = target: T1, Tyrosinase (Agaricus bisporus); assay: Inhibition of diphenolase activity of mushroom tyrosinase at 0.093 mM
[6] = target: T1, Tyrosinase (Agaricus bisporus); assay: Inhibition of diphenolase activity of mushroom tyrosinase at 0.074 mM
[7] = target: T1, Tyrosinase (Agaricus bisporus); assay: Inhibition of diphenolase activity of mushroom tyrosinase at 0.064 mM
[8] = target: T1, Tyrosinase (Agaricus bisporus); assay: Inhibition of diphenolase activity of mushroom tyrosinase at 0.055 mM
[9] = target: T1, Tyrosinase (Agaricus bisporus); assay: Inhibition of diphenolase activity of mushroom tyrosinase at 0.056 mM
[10] = target: T1, Tyrosinase (Agaricus bisporus); assay: Inhibition of diphenolase activity of mushroom tyrosinase at 0.083 mM
[11] = target: T1, Tyrosinase (Agaricus bisporus); assay: Inhibition of diphenolase activity of mushroom tyrosinase at 0.070 mM
[12] = target: T1, Tyrosinase (Agaricus bisporus); assay: Inhibition of diphenolase activity of mushroom tyrosinase at 0.041 mM
[13] = target: T1, Tyrosinase (Agaricus bisporus); assay: Inhibition of diphenolase activity of mushroom tyrosinase at 0.051 mM
[14] = target: T1, Tyrosinase (Agaricus bisporus); assay: Inhibition of diphenolase activity of mushroom tyrosinase at 0.044 mM
[15] = target: T1, Tyrosinase (Agaricus bisporus); assay: Inhibition of diphenolase activity of mushroom tyrosinase at 0.052 mM
[16] = target: T1, Tyrosinase (Agaricus bisporus); assay: Inhibition of diphenolase activity of mushroom tyrosinase at 0.231 mM
[17] = target: T1, Tyrosinase (Agaricus bisporus); assay: Inhibition of diphenolase activity of mushroom tyrosinase at 0.011 mM
[18] = target: T1, Tyrosinase (Agaricus bisporus); assay: Inhibition of diphenolase activity of mushroom tyrosinase at 0.035 mM
[19] = target: T1, Tyrosinase (Agaricus bisporus); assay: Inhibition of diphenolase activity of mushroom tyrosinase at 0.034 mM
[20] = target: T1, Tyrosinase (Agaricus bisporus); assay: Inhibition of diphenolase activity of mushroom tyrosinase at 0.050 mM

Structure (SMILES): COc1cc(/C=C/C(=O)O[C@H]2[C@H](O[C@@H]3O[C@@H](C)[C@H](O)[C@@H](O)[C@H]3O[C@@H]3OC[C@@H](O)[C@@H](O)[C@@H]3O)[C@@H](O)[C@H](OCCc3ccc(O)c(OC)c3)O[C@@H]2CO)ccc1O
- inhibition [1]: 17.3%

Structure (SMILES): COc1cc(-c2oc3cc(O)cc(O)c3c(=O)c2O[C@@H]2O[C@H](COC(=O)/C=C/c3ccc(O)cc3)[C@@H](O)[C@H](O)[C@H]2O)ccc1O
- inhibition [2]: 21.1%

Structure (SMILES): O=C(/C=C/c1ccc(O)c(O)c1)O[C@@H]1C[C@](O)(C(=O)O)C[C@@H](O)[C@H]1O
- inhibition [3]: 7.78%

Structure (SMILES): COc1cc(/C=C/C(=O)O[C@H]2[C@H](O[C@@H]3O[C@@H](C)[C@H](O)[C@@H](O)[C@H]3O[C@@H]3OC[C@@H](O)[C@@H](O)[C@@H]3O)[C@@H](O)[C@H](OCCc3ccc(O)c(O)c3)O[C@@H]2CO[C@@H]2O[C@H](CO)[C@@H](O)[C@H](O)[C@H]2O)ccc1O
- inhibition [4]: 15.5%

Structure (SMILES): C[C@@H]1O[C@@H](O[C@@H]2[C@@H](O)[C@H](OCCc3ccc(O)c(O)c3)O[C@H](CO[C@@H]3O[C@H](CO)[C@@H](O)[C@H](O)[C@H]3O)[C@H]2OC(=O)/C=C/c2ccc(O)c(O)c2)[C@H](O[C@@H]2OC[C@@H](O)[C@@H](O)[C@@H]2O)[C@H](O)[C@H]1O
- inhibition [4]: 12.4%

Structure (SMILES): O=c1cc(-c2ccc(O)cc2)oc2cc(O)cc(O)c12
- inhibition [5]: 14%

Structure (SMILES): O=c1c(O[C@@H]2O[C@H](CO)[C@@H](O)[C@H](O)[C@H]2O)c(-c2ccc(O)cc2)oc2cc(O)cc(O)c12
- inhibition [6]: 24.2%

Structure (SMILES): COc1cc(-c2oc3cc(O)cc(O)c3c(=O)c2O[C@@H]2O[C@H](COC(C)=O)[C@@H](O)[C@H](O)[C@H]2O)ccc1O
- inhibition [7]: 23.3%

Structure (SMILES): C[C@@H]1O[C@@H](OC[C@H]2O[C@@H](Oc3c(-c4ccc(O)c(O)c4)oc4cc(O)cc(O)c4c3=O)[C@H](O)[C@@H](O)[C@@H]2O)[C@H](O)[C@H](O)[C@H]1O
- inhibition [8]: 12.7%

Structure (SMILES): O=C(/C=C/c1ccc(O)cc1)OC[C@H]1O[C@@H](Oc2c(-c3ccc(O)c(O)c3)oc3cc(O)cc(O)c3c2=O)[C@H](O)[C@@H](O)[C@@H]1O
- inhibition [8]: 21.9%

Structure (SMILES): COc1ccc(-c2cc(=O)c3c(O)c(O)c(OC)cc3o2)cc1
- inhibition [2]: 2.78%

Structure (SMILES): C[C@@H]1O[C@@H](O[C@@H]2[C@@H](O)[C@H](OCCc3ccc(O)c(O)c3)O[C@H](CO)[C@H]2OC(=O)/C=C/c2ccc(O)c(O)c2)[C@H](O)[C@H](O)[C@H]1O
- inhibition [2]: 25.8%

Structure (SMILES): O=C(O)CC(OC(=O)/C=C/c1ccc(O)c(O)c1)C(=O)O (stereo unspecified)
- inhibition [9]: 4.62%

Structure (SMILES): COc1cc(-c2cc(=O)c3c(O)cc(O)cc3o2)ccc1O
- inhibition [10]: 16.4%

Structure (SMILES): COc1cc(-c2oc3cc(O)cc(O)c3c(=O)c2O[C@@H]2O[C@H](CO[C@@H]3O[C@@H](C)[C@H](O)[C@@H](O)[C@H]3O)[C@@H](O)[C@H](O)[C@H]2O)ccc1O
- inhibition [2]: 13.1%

Structure (SMILES): COc1cc(-c2oc3cc(O)cc(O)c3c(=O)c2O[C@@H]2O[C@H](CO)[C@@H](O)[C@H](O)[C@H]2O)ccc1O
- inhibition [11]: 24.2%

Structure (SMILES): C[C@H]1O[C@H](OC[C@H]2O[C@@H](Oc3c(-c4ccc(O)cc4)oc4cc(O)c(O)c(O)c4c3=O)[C@H](O)[C@@H](O)[C@@H]2O)[C@@H](O)[C@@H](O)[C@@H]1O
- inhibition [8]: 27.1%

Structure (SMILES): O=C(O)/C=C/c1ccc(O)cc1
- inhibition [12]: 8.87%

Structure (SMILES): O=c1c(O)c(-c2ccc(O)c(O)c2)oc2cc(O)cc(O)c12
- inhibition [13]: 49.7%

Structure (SMILES): COc1cc(/C=C/C(=O)O[C@H]2[C@H](O[C@H]3O[C@H](C)[C@@H](O)[C@H](O)[C@@H]3O)[C@@H](O)[C@H](OCCc3ccc(O)c(OC)c3)O[C@@H]2CO[C@H]2OCC(O)(CO)[C@@H]2O)ccc1O (stereo partly specified)
- inhibition [1]: 12.7%

Structure (SMILES): COc1cc(-c2cc(=O)c3c(O)cc(O[C@@H]4O[C@H](COC(=O)/C=C/c5ccc(O)cc5)[C@@H](O)[C@H](OC(=O)/C=C/c5ccc(O)cc5)[C@H]4O)cc3o2)ccc1O
- inhibition [14]: 15.6%

Structure (SMILES): COc1ccc(CCO[C@@H]2O[C@H](CO)[C@@H](OC(=O)/C=C/c3ccc(O)c(OC)c3)[C@H](O[C@@H]3O[C@@H](C)[C@H](O)[C@@H](O)[C@H]3O)[C@H]2O)cc1O
- inhibition [15]: 20.6%

Structure (SMILES): COc1cc(C[C@@H]2CO[C@@H](c3ccc(O[C@H]4O[C@@H](CO)[C@H](O)[C@@H](O)[C@@H]4O)c(OC)c3)[C@@H]2CO)ccc1O[C@H]1O[C@@H](CO)[C@H](O)[C@@H](O)[C@@H]1O
- inhibition [3]: 11.1%

Structure (SMILES): COc1ccc(-c2cc(=O)c3c(OC)c(OC)c(OC)cc3o2)cc1
- inhibition [3]: 3.23%

Structure (SMILES): COc1cc(/C=C/C(=O)O[C@H]2[C@H](O[C@@H]3O[C@@H](C)[C@H](O)[C@@H](O)[C@H]3O)[C@@H](O)[C@H](OCCc3ccc(O)c(O)c3)O[C@@H]2CO)ccc1O
- inhibition [13]: 21.6%

Structure (SMILES): O=c1cc(-c2ccc(O)c(O)c2)oc2cc(O[C@@H]3O[C@H](CO)[C@@H](O)[C@H](O)[C@H]3O)cc(O)c12
- inhibition [6]: 27.4%

Structure (SMILES): C[C@H]1O[C@H](O[C@@H]2[C@@H](O)[C@H](OCCc3ccc(O)c(O)c3)O[C@H](CO[C@H]3O[C@@H](CO)[C@H](O)[C@@H](O)[C@@H]3O)[C@H]2OC(=O)/C=C/c2ccc(O)c(O)c2)[C@@H](O)[C@@H](O)[C@@H]1O
- inhibition [1]: 17.5%

Structure (SMILES): C[N+]1(C)CCC[C@@H]1C(=O)[O-]
- inhibition [16]: 11.1%

Structure (SMILES): C[C@@H]1O[C@@H](O[C@@H]2[C@@H](O)[C@H](OCCc3ccc(O)c(O)c3)O[C@H](CO)[C@H]2OC(=O)/C=C/c2ccc(O)c(O)c2)[C@H](O[C@@H]2OC[C@@H](O)[C@@H](O)[C@@H]2O)[C@H](O)[C@H]1O
- inhibition [14]: 12%

Structure (SMILES): COc1cc(C[C@@H]2CO[C@@H](c3ccc(O[C@H]4O[C@@H](CO)[C@H](O)[C@@H](O)[C@@H]4O)c(OC)c3)[C@@H]2CO)ccc1O
- inhibition [7]: 17.7%

Structure (SMILES): COc1ccc(CCO[C@@H]2O[C@H](CO[C@H]3O[C@@H](CO)[C@H](O)[C@@H](O)[C@@H]3O)[C@@H](OC(=O)/C=C/c3ccc(O)c(OC)c3)[C@H](O[C@H]3O[C@H](C)[C@@H](O)[C@H](O)[C@@H]3O)[C@H]2O)cc1O
- inhibition [12]: 22.6%

Structure (SMILES): O=C(/C=C/c1ccc(O)cc1)OC[C@H]1O[C@@H](Oc2c(-c3ccc(O)cc3)oc3cc(O)cc(O)c3c2=O)[C@H](O)[C@@H](O)[C@@H]1O
- inhibition [17]: 14.7%
- inhibition [9]: 30.2%

Structure (SMILES): COc1ccc(CCO[C@@H]2O[C@H](CO[C@@H]3O[C@H](CO)[C@@H](O)[C@H](O)[C@H]3O)[C@@H](OC(=O)/C=C/c3ccc(O)c(OC)c3)[C@H](O[C@@H]3O[C@@H](C)[C@H](O)[C@@H](O)[C@H]3O[C@@H]3OC[C@@H](O)[C@@H](O)[C@@H]3O)[C@H]2O)cc1O
- inhibition [18]: 13.2%

Structure (SMILES): COc1cc([C@@H]2OC[C@@H](Cc3ccc(O[C@H]4O[C@@H](CO)[C@H](O)[C@@H](O)[C@@H]4O)c(OC)c3)[C@H]2CO)ccc1O
- inhibition [7]: 12.3%

Structure (SMILES): C[C@H]1O[C@H](O[C@@H]2[C@@H](O)[C@H](O)O[C@H](CO)[C@H]2OC(=O)/C=C/c2ccc(O)c(O)c2)[C@@H](O)[C@@H](O)[C@@H]1O
- inhibition [19]: 10.9%

Structure (SMILES): O=c1cc(-c2ccc(O)cc2)oc2c(O)c(O)c(O)c(O)c12
- inhibition [8]: 5.21%

Structure (SMILES): C[C@@H]1O[C@@H](OC[C@H]2O[C@@H](Oc3c(-c4ccc(O)cc4)oc4cc(O)cc(O)c4c3=O)[C@H](O)[C@@H](O)[C@@H]2O)[C@H](O)[C@H](O)[C@H]1O
- inhibition [9]: 16.1%

Structure (SMILES): COc1cc(/C=C/C(=O)O)ccc1O
- inhibition [18]: 6.68%

Structure (SMILES): COc1ccc(CCO[C@@H]2O[C@H](CO)[C@@H](OC(=O)/C=C/c3ccc(O)c(OC)c3)[C@H](O[C@@H]3O[C@@H](C)[C@H](O)[C@@H](O)[C@H]3O[C@@H]3OC[C@@H](O)[C@@H](O)[C@@H]3O)[C@H]2O)cc1O
- inhibition [1]: 9.48%

Structure (SMILES): COc1ccc(-c2cc(=O)c3c(OC)c(O)c(OC)cc3o2)cc1
- inhibition [20]: 4.24%
